Test results taken from US8278338B2 (priority 2004, dated 2012).
Like-named read-outs stand apart in the source and are kept apart here.

Experiments:
human μ-opiate receptor = biological target: T1, human μ-opiate receptor (Homo sapiens, UniProt P35372); assay: Affinity for the human μ-opiate receptor, [3H]-naloxone displacement (SPA) on CHO-K1 receptor membrane preparation; format: binding; conditions: for μ-Opioid receptor affinity (% inhibition at 1 μmol./l): 1 μmol./l test substance; for μ-Opioid receptor affinity (% inhibition at 1 μmol./l) / inhibition at 1 µM: inhibition of specific [3H]-naloxone binding; for inhibition at 1 µM: 1.5 h, read-out: μ-Opioid receptor affinity (% inhibition at 1 μmol./l), 1 μmol./l test substance
T1 construct: purchased Perkin Elmer, Zaventem, Belgium RB-HOM; host or cells: CHO-K1 cells
T1 sequence (P35372 whole entry): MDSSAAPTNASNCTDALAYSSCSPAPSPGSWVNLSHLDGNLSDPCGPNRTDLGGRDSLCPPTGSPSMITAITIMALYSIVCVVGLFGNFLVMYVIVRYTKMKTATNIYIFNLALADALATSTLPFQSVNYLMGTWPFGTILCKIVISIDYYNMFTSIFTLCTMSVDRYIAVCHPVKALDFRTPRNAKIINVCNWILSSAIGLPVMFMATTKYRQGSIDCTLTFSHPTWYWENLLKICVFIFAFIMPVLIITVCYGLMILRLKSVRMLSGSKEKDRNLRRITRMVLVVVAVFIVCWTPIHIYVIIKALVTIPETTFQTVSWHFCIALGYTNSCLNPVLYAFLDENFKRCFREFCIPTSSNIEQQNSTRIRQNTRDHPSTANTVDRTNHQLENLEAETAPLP
Protocol: The receptor affinity for the human μ-opiate receptor was determined in a homogeneous batch on microtitre plates. To that end, serial dilutions of the substances to be tested were incubated for 90 minutes at room temperature with a receptor membrane preparation (15-40 μg of protein/250 μl of incubation batch) of CHO-K1 cells, which express the human μ-opiate receptor (RB-HOM receptor membrane preparation from Perkin Elmer, Zaventem, Belgium), in the presence of 1 nmol./l of the radioactive ligand [^3H]-naloxone (NET719, Perkin Elmer, Zaventem, Belgium) and 1 mg of WGA-SPA beads (wheatgerm agglutinin SPA beads from Amersham/Pharmacia, Freiburg, Germany) in a total volume of 250 μl. The incubation buffer used was 50 mmol./l of Tris-HCl supplemented with 50 μM MgCl2 and 0.05% bovine serum albumin. In order to determine non-specific binding, 100 μmol./l of naloxone were additionally added. When the ninety-minute incubation time was complete, the microtitre plates were centrifuged off for 20 minutes at 1000 g and the radioactivity was measured in a β-counter (Microbeta-Trilux, PerkinElmer, Freiburg, Germany). The percentage displacement of the radioactive ligand from its binding to the human μ-opiate receptor at a concentration of the test substances of 1 μmol./l was determined and stated as the percentage inhibition of specific binding. […] Ki values for the test substances were obtained by conversion by means of the Cheng-Prusoff equation (Cheng and Prusoff 1973).

NA reuptake = biological target: T2, NA reuptake (Rattus norvegicus, UniProt Q63380); assay: Inhibition of NA reuptake in rat brain synaptosomes (hypothalamus, P2 fraction); format: biochemical; conditions: for inhibition at 10 µM: 10 μmol./l
T2 construct: isolated from the hypothalamus of male rat brains; from tissue; host or cells: rat brain synaptosomes (P2 fraction), hypothalamus of male rats
T2 sequence (Q63380 1-617): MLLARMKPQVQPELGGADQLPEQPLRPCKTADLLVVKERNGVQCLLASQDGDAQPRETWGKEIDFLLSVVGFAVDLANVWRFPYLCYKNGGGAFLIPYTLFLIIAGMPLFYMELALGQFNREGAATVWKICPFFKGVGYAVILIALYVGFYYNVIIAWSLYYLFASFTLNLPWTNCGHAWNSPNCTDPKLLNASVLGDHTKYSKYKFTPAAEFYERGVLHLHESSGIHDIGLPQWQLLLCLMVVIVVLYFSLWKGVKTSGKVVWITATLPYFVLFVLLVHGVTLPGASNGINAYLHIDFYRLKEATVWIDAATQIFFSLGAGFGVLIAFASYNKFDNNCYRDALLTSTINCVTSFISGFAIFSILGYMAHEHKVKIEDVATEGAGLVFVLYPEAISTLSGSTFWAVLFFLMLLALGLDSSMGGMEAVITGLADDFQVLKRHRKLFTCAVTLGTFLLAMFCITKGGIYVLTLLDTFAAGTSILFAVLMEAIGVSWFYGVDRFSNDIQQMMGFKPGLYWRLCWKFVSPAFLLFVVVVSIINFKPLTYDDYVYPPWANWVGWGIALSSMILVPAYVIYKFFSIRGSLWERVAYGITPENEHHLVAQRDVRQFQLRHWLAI
Protocol: In order to be able to carry out these in vitro studies, synaptosomes were freshly isolated from areas of rat brain. A so-called “P2” fraction was used in each case, which was prepared exactly according to the procedure of Gray, E. G. and Whittaker, V. P. (1962, J. Anat. […], 79-88). For NA reuptake, these vesicular particles were isolated from the hypothalamus of male rat brains, and for 5HT reuptake, they were isolated from the medulla+pons region.
IC50 values were obtained thereby which can be converted into inhibitor constants (Ki) according to the “Cheng-Prusoff equation” (Cheng, Y. C. and Prusoff, W. H., 1973, Biochem. Pharmacol. 22, 3099-3108). The IC50 values were obtained with the aid of the “Figure P” computer program (Version 6.0, Biosoft, Cambridge, England). Km values were calculated according to Lineweaver, H. and Burk, D. (1934, J. Am. Chem. Soc. 56, 658-666). The “Ligand” computer program (Version 4, Biosoft, England) was used to show KD values.

5-HT reuptake = 5-HT reuptake (Rattus norvegicus, UniProt P31652); assay: biochemical; conditions: for inhibition at 10 µM: read-out: Inhibition of 5-HT reuptake (% inhibition at 10 μmol./l), 10 μmol./l
5-HT reuptake, sequence (P31652 whole entry): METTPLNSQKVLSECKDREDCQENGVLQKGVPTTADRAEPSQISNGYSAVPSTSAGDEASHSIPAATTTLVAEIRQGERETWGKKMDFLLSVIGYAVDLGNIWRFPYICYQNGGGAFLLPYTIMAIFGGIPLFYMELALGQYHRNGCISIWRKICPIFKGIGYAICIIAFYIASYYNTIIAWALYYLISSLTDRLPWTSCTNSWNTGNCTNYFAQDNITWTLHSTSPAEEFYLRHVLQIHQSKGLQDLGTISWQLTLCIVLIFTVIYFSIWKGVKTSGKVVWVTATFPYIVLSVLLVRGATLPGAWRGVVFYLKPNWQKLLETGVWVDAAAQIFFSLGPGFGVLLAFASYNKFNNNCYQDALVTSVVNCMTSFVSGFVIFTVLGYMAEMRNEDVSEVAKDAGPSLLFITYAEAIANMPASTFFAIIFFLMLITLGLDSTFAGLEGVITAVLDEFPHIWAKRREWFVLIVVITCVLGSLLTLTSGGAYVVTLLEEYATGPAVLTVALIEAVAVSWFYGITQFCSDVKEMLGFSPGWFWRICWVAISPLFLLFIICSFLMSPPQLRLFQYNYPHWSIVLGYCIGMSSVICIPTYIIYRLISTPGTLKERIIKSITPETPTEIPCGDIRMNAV
Excerpt: In order to be able to carry out these in vitro studies, synaptosomes were freshly isolated from areas of rat brain. […] For NA reuptake, these vesicular particles were isolated from the hypothalamus of male rat brains, and for 5HT reuptake, they were isolated from the medulla+pons region.
The IC50 values were obtained with the aid of the “Figure P” computer program (Version 6.0, Biosoft, Cambridge, England). […] The “Ligand” computer program (Version 4, Biosoft, England) was used to show KD values.

rat = assay: Formalin test in the rat (phase 2, chronic pain component); format: in vivo
Protocol: The formalin test (Dubuisson, D. and Dennis, S. G., 1977, Pain, 4, 161-174) represents a model for acute and chronic pain. By means of a single formalin injection into the dorsal side of a rear paw, a biphase nociceptive reaction was induced in freely mobile test animals; the reaction was assessed by observing three behaviour patterns which are clearly distinguishable from one another. The reaction is two-phase: phase 1=immediate reaction (duration up to 10 minutes; shaking of the paw, licking), phase 2=late reaction (after a rest phase; likewise shaking of the paw, licking; duration up to 60 minutes). The first phase reflects a direct stimulation of the peripheral nocisensors with a high spinal nociceptive input or glutamate release (acute pain phase); the second phase reflects a spinal and peripheral hypersensitisation (chronic pain phase). In the studies presented here, the chronic pain component (phase 2) was evaluated.
Formalin was administered subcutaneously in a volume of 50 μl and a concentration of 5% into the dorsal side of the right rear paw of each animal. The specific behavioural changes, such as lifting and shaking of the paw, weight shifting of the animal and biting and licking reactions, were observed and recorded over an observation period of from 21 to 27 minutes after the formalin injection. The various behaviours were combined to give the so-called pain rate (PR) which, based on 3-minute intervals, represents the calculation of a mean nociceptive reaction. The PR was calculated on the basis of a numerical weighting (=in each case factor 1, 2, 3) of the observed behaviours (corresponding to behaviour score 1, 2, 3) and was calculated using the following formula:
The size of the group was 10 animals (n=10).
On the basis of the PR calculations, the activity of the substance was determined in percent as the change relative to a control. The ED50 was determined by means of regression analysis.

[1] = Cheng-Prusoff from IC50, [3H]-naloxone 1 nmol./l, read-out: μ-Opioid receptor affinity, Ki
[2] = rat synaptosomes, Cheng-Prusoff

Row | SMILES | inhibition at 10 µM (NA reuptake) [%] | inhibition at 1 µM (human μ-opiate receptor) [%] | inhibition at 10 µM (5-HT reuptake; rat synaptosomes) [%] | also measured
1 | CN(C)CC1Cc2ccccc2C1(O)c1cccnc1 (single isomer, unassigned) [Example 1, 2-dimethylaminomethyl-1-pyridin-3-yl-indan-1-ol] | 33 | – | – | μ-Opioid receptor affinity (% inhibition at 1 μmol./l) (human μ-opiate receptor): 1%; Inhibition of 5-HT reuptake (% inhibition at 10 μmol./l) (5-HT reuptake; rat synaptosomes): 63%
2 | CN(C)CC1Cc2ccccc2C1c1cccnc1 (centres unmarked) [Example 4, dimethyl-(1-pyridin-3-yl-indan-2-ylmethyl)-amine] | 46 | 31 | 86 | Inhibition of the nociceptive behaviour versus control (% inhibition) (rat; 4.64 mg/kg i.v., phase 2): −61.60%
3 | COc1cccc2c1CCC(CN(C)C)=C2c1cccnc1 [Example 38, (5-methoxy-1-pyridin-3-yl-3,4-dihydro-naphthalen-2-ylmethyl)-dimethyl-amine] | 34 | – | – | Ki (human μ-opiate receptor; [1]): 460 nM; Ki (5-HT reuptake; [2]): 370 nM
4 | CN(C)CC1Cc2cc(F)ccc2C1(O)c1cccnc1 (centres unmarked) [Example 18, 2-dimethylaminomethyl-5-fluoro-1-pyridin-3-yl-indan-1-ol] | 29 | -6 | 56 | –
5 | CN(C)CC1=C(c2cccnc2)c2ccccc2SCC1 [Example 15, dimethyl-(5-pyridin-3-yl-2,3-dihydro-benzo[b]thiepin-4-ylmethyl)-amine] | 36 | – | 60 | Inhibition of the nociceptive behaviour versus control (% inhibition) (rat; 10 mg/kg i.v., phase 2): −70.7%; Ki (human μ-opiate receptor; [1]): 320 nM
6 | COc1cccc2c1CCC(CN(C)C)C2(O)c1cccnc1 (centres unmarked) [Example 36, 2-dimethylaminomethyl-5-methoxy-1-pyridin-3-yl-1,2,3,4-tetrahydro-naphthalen-1-ol] | 49 | – | 33 | μ-Opioid receptor affinity (% inhibition at 1 μmol./l) (human μ-opiate receptor): −14%
7 | CN(C)CC1CCc2ccccc2C1(O)c1cccnc1 (centres unmarked) [Example 8, 2-dimethylaminomethyl-1-pyridin-3-yl-1,2,3,4-tetrahydro-naphthalen-1-ol] | – | – | – | Inhibition of the nociceptive behaviour versus control (% inhibition) (rat; 46.4 mg/kg i.v., phase 2): −65.8%
8 | CN(C)CC1CCSc2ccccc2C1(O)c1cccnc1 (centres unmarked) [Example 13, 4-dimethylaminomethyl-5-pyridin-3-yl-2,3,4,5-tetrahydro-benzo[b]thiepin-5-ol] | 45 | – | 41 | Inhibition of the nociceptive behaviour versus control (% inhibition) (rat; 21.5 mg/kg i.v., phase 2, 21.5 mg/kg): −53.6%; μ-Opioid receptor affinity (% inhibition at 1 μmol./l) (human μ-opiate receptor): −23%
9 | CN(C)CC1CCS(=O)(=O)c2ccccc2C1(O)c1cccnc1 (centres unmarked) [Example 17, 4-dimethylaminomethyl-1,1-dioxo-5-pyridin-3-yl-2,3,4,5-tetrahydro-1H-1λ6-benzo[b]thiepin-5-ol] | 19 | -13 | 57 | –
10 | CNCC[C@H](Oc1cccc2ccccc12)c1cccs1 [Duloxetin, duloxetin, reference compound] | – | – | – | Inhibition of the nociceptive behaviour versus control, ED50 value (rat; i.v., phase 2, regression analysis): 1.43 mg/kg; μ-Opioid receptor affinity (% inhibition at 1 μmol./l) (human μ-opiate receptor): −10%
11 | CN(C)CC1CCOc2ccccc2C1(O)c1cccnc1 (centres unmarked) [Example 24, 4-dimethylaminomethyl-5-pyridin-3-yl-2,3,4,5-tetrahydro-benzo[b]oxepin-5-ol] | 9 | 45 | 12 | –
12 | CN(C)CC1=C(c2cccnc2)c2ccc(F)cc2C1 [Example 19, (6-fluoro-3-pyridin-3-yl-1H-inden-2-ylmethyl)-dimethyl-amine] | 31 | – | – | Ki (human μ-opiate receptor): 290 nM; Ki (5-HT reuptake; [2]): 43 nM
13 | CN(C)CC1=C(c2cccnc2)c2ccc(C(F)(F)F)cc2C1 [Example 23, dimethyl-(3-pyridin-3-yl-6-trifluoromethyl-1H-inden-2-ylmethyl)-amine] | 6 | -8 | 47 | –
14 | COc1cccc2c1CCC(CN(C)C)C2(O)c1cccnc1 (centres unmarked) [Example 37, 2-dimethylaminomethyl-5-methoxy-1-pyridin-3-yl-1,2,3,4-tetrahydro-naphthalen-1-ol] | – | – | – | μ-Opioid receptor affinity (% inhibition at 1 μmol./l) (human μ-opiate receptor): 8%; Inhibition of NA reuptake (% inhibition at 10 μmol./l) (NA reuptake): 57%; Inhibition of 5-HT reuptake (% inhibition at 10 μmol./l) (5-HT reuptake; rat synaptosomes): 19%
15 | CN(C)CC1=C(c2cccnc2)c2ccccc2OCC1 [Example 26, dimethyl-(5-pyridin-3-yl-2,3-dihydro-benzo[b]oxepin-4-ylmethyl)-amine] | 9 | 37 | 50 | –
16 | CN(C)CC1CSc2ccccc2C1(O)c1cccnc1 (centres unmarked) [Example 31, 3-dimethylaminomethyl-4-pyridin-3-yl-thiochroman-4-ol] | 48 | – | -4 | –
17 | CN(C)CC1=C(c2cccnc2)c2cccc(O)c2CC1 [Example 39, 6-dimethylaminomethyl-5-pyridin-3-yl-7,8-dihydro-naphthalen-1-ol] | 50 | – | – | Ki (human μ-opiate receptor): 20 nM; Ki (5-HT reuptake): 250 nM
18 | CN(C)CC1=C(c2cccnc2)c2ccccc2[S+]([O-])CC1 (centres unmarked) [Example 16, dimethyl-(1-oxo-5-pyridin-3-yl-2,3-dihydro-1H-1λ4-benzo[b]thiepin-4-ylmethyl)-amine] | -2 | – | 35 | Ki (human μ-opiate receptor; [1]): 210 nM
19 | CN(C)CC1=C(c2cccnc2)c2ccc(OC(F)(F)F)cc2C1 [Example 21, dimethyl-(3-pyridin-3-yl-6-trifluoromethoxy-1H-inden-2-ylmethyl)-amine] | 14 | 5 | – | Ki (5-HT reuptake; [2]): 430 nM
20 | CN(C)CC1Cc2cc(C(F)(F)F)ccc2C1(O)c1cccnc1 (centres unmarked) [Example 22, 2-dimethylaminomethyl-1-pyridin-3-yl-5-trifluoromethyl-indan-1-ol] | 17 | 2 | 61 | –
21 | CN(C)CC1CCCc2ccccc2C1(O)c1cccnc1 (centres unmarked) [Example 11, 6-dimethylaminomethyl-5-pyridin-3-yl-6,7,8,9-tetrahydro-5H-benzocyclohepten-5-ol] | 39 | 20 | – | Ki (5-HT reuptake): 28 nM
22 | CN(C)CC1Cc2cc(OC(F)(F)F)ccc2C1(O)c1cccnc1 (centres unmarked) [Example 20, 2-dimethylaminomethyl-1-pyridin-3-yl-5-trifluoromethoxy-indan-1-ol] | 38 | -19 | 71 | –
